Experimental findings from patent US20240209061A1, “FUSION PROTEINS AND USES THEREOF” (Pfizer Inc., priority 2020, published 2024) are described below.

The target in one test is T1, recombinant soluble CD28 (Homo sapiens, UniProt P10747).
T1 construct: Recombinant soluble CD28 and CTLA-4 proteins (from Creative BioMart, Product #CD28-3910H, CTLA-4-2232H) were immobilized; purchased Creative BioMart CD28-3910H
Kind of test: ELISA binding to recombinant soluble CD28. The following applies: standard ELISA, FIG. 2A. As to the method: Binding affinity of purified CD80-Fc fusion proteins (WT and variant) to recombinant soluble CD28 and CTLA-4 proteins was determined by standard ELISA. Recombinant soluble CD28 and CTLA-4 proteins (from Creative BioMart, Product #CD28-3910H, CTLA-4-2232H) were immobilized on 96 well microtiter plate (Thermo Scientific, Product #436110) in bicarbonate buffer at 4° C. overnight. After washing with 1×PBS containing 0.05% Tween 20 (wash buffer) plates were incubated with blocking buffer, 5% BSA in PBS, for 1 hour at room temperature. A serial dilution of CD80-Fc fusion proteins and human IgG1 isotype control antibody was prepared in blocking buffer, added into the plate and incubated at room temperature for 1 hour. Following washing 3× with wash buffer, 1:4000 dilution of HRP conjugated secondary anti-human IgG1 antibody (R&D Systems, MAB110-100) was added into the plate and incubated at room temperature for 1 hour. Plates were washed 3× with wash buffer and a 100 μl of LumiGlo (SeraCare, Product #5430-0040) reagent added into each well, incubated for 5 minutes at room temperature before reading luminescence signal in EnSight™ plate reader (PerkinElmer).
Background: An ELISA detects its analyte on a solid surface through an enzyme-linked reagent.

For test [1], the system named is EMT6 murine breast cancer cells. Put plainly: EMT6 murine breast cancer model. The format is in vivo, mouse. The following applies: for Day 17 tumor volume: Days 0 and 3; for % tumor growth inhibition: Day 17; for # IFNγ-producing spots, Spleen / # IFNγ-producing spots, TDLN: average of n = 4 mice; for CD8^+ T cell infiltrates (% CD45): EMT6, n=4. As for the experimental part:
EMT6 murine breast cancer cells (3×10^5) were orthotopically implanted in the mammary fat pad of female Balb/c mice. When tumors reached ˜90 mm^3 (day 5 after implantation), mice were randomized. PBS vehicle control or variant CD80-Fc fusion proteins were dosed intravenously at 0.01, 0.1, 1.0 and 3.0 mg/kg on Days 0 and 3. Tumor volume was determined by caliper measurements obtained in 2 dimensions and calculated as width^2×length/2. Error bars are depicted as ±SEM.
Tumor-reactive T cells in the spleen and tumor-draining lymph nodes (TDLNs) were measured by IFNγ ELIspot in mice treated with CD80-K89D-D90K-T28V-T57V-Fc.
(§1) Cytotoxic CD8^+ T cells are responsible for killing cancer cells and the measurement of CD8^+ T cells that have infiltrated tumors commonly correlates with efficacy for immune-oncology therapies. For all in vivo studies, tumors were collected ˜1 week after the first dose and dissociated by mincing, followed by incubation in an enzymatic digestion cocktail and homogenization. The resulting cell suspension was filtered and washed, and single cells were stained with antibodies to CD45, CD8, and a viability dye to detect tumor-infiltrating lymphocytes (TILs) by flow cytometry. Data were acquired on a BD LSRFortessa flow cytometer or a Cytek Aurora spectral flow cytometer. Table 31 and FIG. 18 show the amount of tumor-infiltrating CD8+ T cells expressed as a percentage of total immune cells (CD45+). Each value is the average of n=4 mice per group. Treatment with all variant CD80-Fc fusion proteins led to increase in CD8+ TILs in various tumor models.

The test system of test [2] is MC38 murine colorectal carcinoma cells. Put plainly: MC38 murine colorectal carcinoma model, IV and SC dosing. Format: in vivo, mouse. The following applies: for CD8^+ T cell infiltrates (% CD45): MC38, n=4. As to the method: MC38 murine colorectal carcinoma cells (5×10^5) were subcutaneously implanted in the hind flank of female […] mice. When tumors reach ˜50 mm^3 (day 6 after implantation), mice were randomized. PBS vehicle control or variant CD80-Fc fusion proteins were dosed intravenously (IV) or subcutaneously (SC) with doses ranging from 0.01-3.0 mg/kg on Days 0 and 3. Tumor volume was determined by caliper measurements obtained in 2 dimensions and calculated as width^2×length/2. Error bars are depicted as ±SEM.
as §1

In the case of “CD80-D90Q-Fc: variant CD80 ECD (D90Q) fused to human IgG1 Fc”, in the test with recombinant soluble CD28, the “binding affinity to CD28 compared to WT CD80-Fc” value was “increased binding affinity to CD28”.
For the substance “CD80-K89D-D90K-T28V-T57V-Fc: non-cysteine stabilized variant CD80-Fc fusion protein (K89D, D90K, T28V, T57V)”, the “Day 17 tumor volume” value in test [1] (0.01 mg/kg IV) was determined as 1552.0 mm^3; in test [1] (0.1 mg/kg IV), 981.2 mm^3; in test [1] (1 mg/kg IV), 818.8 mm^3; in test [1] (3 mg/kg IV), 133.4 mm^3. Further, the “% tumor growth inhibition” value stood at 0.4% in test [1] (0.01 mg/kg); 39.0% in test [1] (0.1 mg/kg); 50.1% in test [1] (1 mg/kg); 96.6% in test [1] (3 mg/kg); 17.9% in test [2] (Day 15, Intravenous 0.01 mg/kg); 25.2% in test [2] (Day 15, Intravenous 0.1 mg/kg). Also, the “% tumor growth inhibition” value is given as 59.9% in test [2] (Day 15, Intravenous 1 mg/kg); 83.8% in test [2] (Day 15, Intravenous 3 mg/kg); 11.1% in test [2] (Day 15, Subcutaneous 0.01 mg/kg); 27.1% in test [2] (Day 15, Subcutaneous 0.1 mg/kg); 73.7% in test [2] (Day 15, Subcutaneous 1 mg/kg); 84.4% in test [2] (Day 15, Subcutaneous 3 mg/kg). Further, the “# IFNγ-producing spots, Spleen” value in test [1] (0.01 mg/kg) came to 123.1; in test [1] (0.1 mg/kg), 117.9; in test [1] (1 mg/kg) it was 336.4; in test [1] (3 mg/kg), 427.7. The “# IFNγ-producing spots, TDLN” value is recorded as 51.9 in test [1] (0.01 mg/kg), 132.3 in test [1] (0.1 mg/kg), 475.2 in test [1] (1 mg/kg) and 540.9 in test [1] (3 mg/kg). In addition, the “CD8^+ T cell infiltrates (% CD45)” value in test [1] (0.01 mg/kg) is on record as 3.98 % CD45; in test [1] (0.1 mg/kg), 9.59 % CD45; in test [1] (1 mg/kg), 15.91 % CD45; in test [1] (3 mg/kg), 8.19 % CD45; in test [2] (0.01 mg/kg), 6.26 % CD45; in test [2] (0.1 mg/kg), 10.81 % CD45. Besides, in test [2] (1 mg/kg), the “CD8^+ T cell infiltrates (% CD45)” value was 23.58 % CD45. Further, the “Day 15 tumor volume” value in test [2] (Intravenous 0.01 mg/kg) is given as 1042.1 mm^3; in test [2] (Intravenous 0.1 mg/kg), 954.8 mm^3; in test [2] (Intravenous 1 mg/kg) it was 535.3 mm^3; in test [2] (Intravenous 3 mg/kg) it was 248.1 mm^3; in test [2] (Subcutaneous 0.01 mg/kg), 1125.4 mm^3; in test [2] (Subcutaneous 0.1 mg/kg), 931.7 mm^3. The “Day 15 tumor volume” value in test [2] (Subcutaneous 1 mg/kg) stood at 369.7 mm^3; in test [2] (Subcutaneous 3 mg/kg), 240.9 mm^3.
As for “CD80-K89Q-D90Q-E23C-A26C-Fc: disulfide stabilized variant CD80-Fc fusion protein (K89Q, D90Q, E23C, A26C)”, the “Day 17 tumor volume” value in test [1] (0.01 mg/kg IV) stood at 1581.7 mm^3; in test [1] (0.1 mg/kg IV), 912.2 mm^3; in test [1] (1 mg/kg IV), 357.2 mm^3; in test [1] (3 mg/kg IV), 457.5 mm^3. Further, the “% tumor growth inhibition” value in test [1] (0.01 mg/kg) is −1.7%; in test [1] (0.1 mg/kg), 43.7%; in test [1] (1 mg/kg), 81.4%; in test [1] (3 mg/kg) it was 74.6%; in test [2] (Day 16, Intravenous 0.01 mg/kg), 31.2%; in test [2] (Day 16, Intravenous 0.1 mg/kg), 37.7%. Also, the “% tumor growth inhibition” value is 64.2% in test [2] (Day 16, Intravenous 1 mg/kg); 93.0% in test [2] (Day 16, Intravenous 3 mg/kg); 64.2% in test [2] (Day 16, Subcutaneous 1.5 mg/kg); 83.7% in test [2] (Day 16, Subcutaneous 3 mg/kg). The “Day 16 tumor volume” value was determined as 905.1 mm^3 in test [2] (Intravenous 0.01 mg/kg); 824.7 mm^3 in test [2] (Intravenous 0.1 mg/kg); 495.3 mm^3 in test [2] (Intravenous 1 mg/kg); 138.9 mm^3 in test [2] (Intravenous 3 mg/kg); 495.6 mm^3 in test [2] (Subcutaneous 1.5 mg/kg); 252.2 mm^3 in test [2] (Subcutaneous 3 mg/kg). Further, the “CD8^+ T cell infiltrates (% CD45)” value in test [2] (0.01 mg/kg) came to 9.8 % CD45; in test [2] (0.1 mg/kg), 24.5 % CD45; in test [2] (1 mg/kg), 24.6 % CD45; in test [2] (3 mg/kg) it was 41.3 % CD45.
Take “CD80-K89Q-D90Q-Fc: variant CD80 ECD (K89Q, D90Q) fused to human IgG1 Fc”: the “binding affinity to CD28 compared to WT CD80-Fc” value in the test with recombinant soluble CD28 is given as “increased binding affinity to CD28”.
